Assay results published in PubChem BioAssay (NCI).
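The compound was tested at five concentrations on cells cultured in 96-well plates, with a 48-hour exposure period. TGI marks complete inhibition of growth.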

tested on: CCRF-CEM leukemia; test: NCI-60 cell line screen, 48 h

SMILES	TGI [µM]
COc1cccc(OC)c1/C=C1\OC(=O)c2cccc(OC)c21	> 100

tested on: SF-295 CNS; test: NCI-60 cell line screen, 48 h

SMILES	TGI [µM]
CN(Nc1cc(=O)[nH]c(=O)[nH]1)c1ccccc1	> 100
Cc1ccc(S(=O)(=O)C2=Cc3ccc(C(F)(F)F)cc3C2(O)c2cccc(C(F)(F)F)c2)cc1 (configuration not stated)	6.87
Cc1cn2c(=O)c3ccccc3nc2s1	> 100
CN=NN(C)C(=O)NC	> 100
N#CC(NNC(=O)Cc1ccccc1)c1ccccc1O (configuration not stated)	> 100
COc1cccc(OC)c1/C=C1\OC(=O)c2cccc(OC)c21	> 28.2

tested on: PC-3 prostate; test: NCI-60 cell line screen, 48 h

SMILES	TGI [µM]
CN(Nc1cc(=O)[nH]c(=O)[nH]1)c1ccccc1	> 100
Cc1ccc(S(=O)(=O)C2=Cc3ccc(C(F)(F)F)cc3C2(O)c2cccc(C(F)(F)F)c2)cc1 (configuration not stated)	8.03
CC(C)=CCS(=O)c1ccccc1NC1=CC(=O)CC(C)(C)C1 (configuration not stated)	> 100
N#CC(NNC(=O)Cc1ccccc1)c1ccccc1O (configuration not stated)	> 100
COc1cccc(OC)c1/C=C1\OC(=O)c2cccc(OC)c21	> 100

tested on: BT-549 breast; test: NCI-60 cell line screen, 48 h

SMILES	TGI [µM]
CN(Nc1cc(=O)[nH]c(=O)[nH]1)c1ccccc1	> 100
Cc1ccc(S(=O)(=O)C2=Cc3ccc(C(F)(F)F)cc3C2(O)c2cccc(C(F)(F)F)c2)cc1 (configuration not stated)	5.22
CC(C)=CCS(=O)c1ccccc1NC1=CC(=O)CC(C)(C)C1 (configuration not stated)	> 100
N#CC(NNC(=O)Cc1ccccc1)c1ccccc1O (configuration not stated)	> 100
COc1cccc(OC)c1/C=C1\OC(=O)c2cccc(OC)c21	> 90.6

tested on: NCI-H23 lung; test: NCI-60 cell line screen, 48 h

SMILES	TGI [µM]
CN(Nc1cc(=O)[nH]c(=O)[nH]1)c1ccccc1	> 100
Cc1ccc(S(=O)(=O)C2=Cc3ccc(C(F)(F)F)cc3C2(O)c2cccc(C(F)(F)F)c2)cc1 (configuration not stated)	6.26
CC(C)=CCS(=O)c1ccccc1NC1=CC(=O)CC(C)(C)C1 (configuration not stated)	> 100
Cc1cn2c(=O)c3ccccc3nc2s1	> 100
CN=NN(C)C(=O)NC	> 100
N#CC(NNC(=O)Cc1ccccc1)c1ccccc1O (configuration not stated)	76.4
COc1cccc(OC)c1/C=C1\OC(=O)c2cccc(OC)c21	> 100

tested on: OVCAR-5 ovarian; test: NCI-60 cell line screen, 48 h

SMILES	TGI [µM]
CN(Nc1cc(=O)[nH]c(=O)[nH]1)c1ccccc1	> 100
Cc1ccc(S(=O)(=O)C2=Cc3ccc(C(F)(F)F)cc3C2(O)c2cccc(C(F)(F)F)c2)cc1 (configuration not stated)	5.07
CC(C)=CCS(=O)c1ccccc1NC1=CC(=O)CC(C)(C)C1 (configuration not stated)	> 100
Cc1cn2c(=O)c3ccccc3nc2s1	> 100
CN=NN(C)C(=O)NC	> 100
N#CC(NNC(=O)Cc1ccccc1)c1ccccc1O (configuration not stated)	> 90.9
COc1cccc(OC)c1/C=C1\OC(=O)c2cccc(OC)c21	> 100

tested on: A549 NSCLC; test: NCI-60 cell line screen, 48 h

SMILES	TGI [µM]
CN(Nc1cc(=O)[nH]c(=O)[nH]1)c1ccccc1	> 100
Cc1ccc(S(=O)(=O)C2=Cc3ccc(C(F)(F)F)cc3C2(O)c2cccc(C(F)(F)F)c2)cc1 (configuration not stated)	8.61
CC(C)=CCS(=O)c1ccccc1NC1=CC(=O)CC(C)(C)C1 (configuration not stated)	> 100
Cc1cn2c(=O)c3ccccc3nc2s1	> 100
CN=NN(C)C(=O)NC	> 100
N#CC(NNC(=O)Cc1ccccc1)c1ccccc1O (configuration not stated)	> 90.4
COc1cccc(OC)c1/C=C1\OC(=O)c2cccc(OC)c21	> 100

tested on: NCI-H226 lung; test: NCI-60 cell line screen, 48 h

SMILES	TGI [µM]
CN(Nc1cc(=O)[nH]c(=O)[nH]1)c1ccccc1	> 100
Cc1ccc(S(=O)(=O)C2=Cc3ccc(C(F)(F)F)cc3C2(O)c2cccc(C(F)(F)F)c2)cc1 (configuration not stated)	4.26
CC(C)=CCS(=O)c1ccccc1NC1=CC(=O)CC(C)(C)C1 (configuration not stated)	> 100
Cc1cn2c(=O)c3ccccc3nc2s1	> 100
N#CC(NNC(=O)Cc1ccccc1)c1ccccc1O (configuration not stated)	68
COc1cccc(OC)c1/C=C1\OC(=O)c2cccc(OC)c21	> 29.5

tested on: HCC-2998 colon; test: NCI-60 cell line screen, 48 h

SMILES	TGI [µM]
CN(Nc1cc(=O)[nH]c(=O)[nH]1)c1ccccc1	> 100
Cc1ccc(S(=O)(=O)C2=Cc3ccc(C(F)(F)F)cc3C2(O)c2cccc(C(F)(F)F)c2)cc1 (configuration not stated)	4.63
CC(C)=CCS(=O)c1ccccc1NC1=CC(=O)CC(C)(C)C1 (configuration not stated)	> 100
Cc1cn2c(=O)c3ccccc3nc2s1	> 100
CN=NN(C)C(=O)NC	> 100
N#CC(NNC(=O)Cc1ccccc1)c1ccccc1O (configuration not stated)	56.1
COc1cccc(OC)c1/C=C1\OC(=O)c2cccc(OC)c21	> 100

tested on: TK-10 renal; test: NCI-60 cell line screen, 48 h

SMILES	TGI [µM]
CN(Nc1cc(=O)[nH]c(=O)[nH]1)c1ccccc1	> 100
Cc1ccc(S(=O)(=O)C2=Cc3ccc(C(F)(F)F)cc3C2(O)c2cccc(C(F)(F)F)c2)cc1 (configuration not stated)	5.96
CC(C)=CCS(=O)c1ccccc1NC1=CC(=O)CC(C)(C)C1 (configuration not stated)	> 100
Cc1cn2c(=O)c3ccccc3nc2s1	> 100
CN=NN(C)C(=O)NC	> 100
N#CC(NNC(=O)Cc1ccccc1)c1ccccc1O (configuration not stated)	> 100
COc1cccc(OC)c1/C=C1\OC(=O)c2cccc(OC)c21	> 100

tested on: OVCAR-3 ovarian; test: NCI-60 cell line screen, 48 h

SMILES	TGI [µM]
CN(Nc1cc(=O)[nH]c(=O)[nH]1)c1ccccc1	> 100
Cc1ccc(S(=O)(=O)C2=Cc3ccc(C(F)(F)F)cc3C2(O)c2cccc(C(F)(F)F)c2)cc1 (configuration not stated)	3.01
CC(C)=CCS(=O)c1ccccc1NC1=CC(=O)CC(C)(C)C1 (configuration not stated)	> 100
Cc1cn2c(=O)c3ccccc3nc2s1	> 100
CN=NN(C)C(=O)NC	> 100
N#CC(NNC(=O)Cc1ccccc1)c1ccccc1O (configuration not stated)	> 43.6
COc1cccc(OC)c1/C=C1\OC(=O)c2cccc(OC)c21	13.5

tested on: EKVX NSCLC; test: NCI-60 cell line screen, 48 h

SMILES	TGI [µM]
CN(Nc1cc(=O)[nH]c(=O)[nH]1)c1ccccc1	> 100
Cc1ccc(S(=O)(=O)C2=Cc3ccc(C(F)(F)F)cc3C2(O)c2cccc(C(F)(F)F)c2)cc1 (configuration not stated)	9.83
CC(C)=CCS(=O)c1ccccc1NC1=CC(=O)CC(C)(C)C1 (configuration not stated)	> 100
Cc1cn2c(=O)c3ccccc3nc2s1	> 100
N#CC(NNC(=O)Cc1ccccc1)c1ccccc1O (configuration not stated)	> 100
COc1cccc(OC)c1/C=C1\OC(=O)c2cccc(OC)c21	> 100

tested on: MDA-MB-435; test: NCI-60 cell line screen, 48 h

SMILES	TGI [µM]
CN(Nc1cc(=O)[nH]c(=O)[nH]1)c1ccccc1	> 100
Cc1ccc(S(=O)(=O)C2=Cc3ccc(C(F)(F)F)cc3C2(O)c2cccc(C(F)(F)F)c2)cc1 (configuration not stated)	4.28
CC(C)=CCS(=O)c1ccccc1NC1=CC(=O)CC(C)(C)C1 (configuration not stated)	> 100
N#CC(NNC(=O)Cc1ccccc1)c1ccccc1O (configuration not stated)	> 100
COc1cccc(OC)c1/C=C1\OC(=O)c2cccc(OC)c21	2.12

tested on: SK-MEL-28 melanoma; test: NCI-60 cell line screen, 48 h

SMILES	TGI [µM]
CN(Nc1cc(=O)[nH]c(=O)[nH]1)c1ccccc1	> 100
Cc1ccc(S(=O)(=O)C2=Cc3ccc(C(F)(F)F)cc3C2(O)c2cccc(C(F)(F)F)c2)cc1 (configuration not stated)	3.75
CC(C)=CCS(=O)c1ccccc1NC1=CC(=O)CC(C)(C)C1 (configuration not stated)	> 100
Cc1cn2c(=O)c3ccccc3nc2s1	> 100
CN=NN(C)C(=O)NC	> 100
N#CC(NNC(=O)Cc1ccccc1)c1ccccc1O (configuration not stated)	> 100
COc1cccc(OC)c1/C=C1\OC(=O)c2cccc(OC)c21	> 100

tested on: SN12C renal; test: NCI-60 cell line screen, 48 h

SMILES	TGI [µM]
CN(Nc1cc(=O)[nH]c(=O)[nH]1)c1ccccc1	> 100
Cc1ccc(S(=O)(=O)C2=Cc3ccc(C(F)(F)F)cc3C2(O)c2cccc(C(F)(F)F)c2)cc1 (configuration not stated)	4.47
CC(C)=CCS(=O)c1ccccc1NC1=CC(=O)CC(C)(C)C1 (configuration not stated)	> 100
Cc1cn2c(=O)c3ccccc3nc2s1	> 100
CN=NN(C)C(=O)NC	> 100
N#CC(NNC(=O)Cc1ccccc1)c1ccccc1O (configuration not stated)	> 100
COc1cccc(OC)c1/C=C1\OC(=O)c2cccc(OC)c21	> 100

tested on: HCT-15 colon; test: NCI-60 cell line screen, 48 h

SMILES	TGI [µM]
Cc1ccc(S(=O)(=O)C2=Cc3ccc(C(F)(F)F)cc3C2(O)c2cccc(C(F)(F)F)c2)cc1 (configuration not stated)	4.27
CC(C)=CCS(=O)c1ccccc1NC1=CC(=O)CC(C)(C)C1 (configuration not stated)	28.7
CN=NN(C)C(=O)NC	> 100
N#CC(NNC(=O)Cc1ccccc1)c1ccccc1O (configuration not stated)	> 100
COc1cccc(OC)c1/C=C1\OC(=O)c2cccc(OC)c21	> 100

tested on: HT29 colon; test: NCI-60 cell line screen, 48 h

SMILES	TGI [µM]
CN(Nc1cc(=O)[nH]c(=O)[nH]1)c1ccccc1	> 100
Cc1ccc(S(=O)(=O)C2=Cc3ccc(C(F)(F)F)cc3C2(O)c2cccc(C(F)(F)F)c2)cc1 (configuration not stated)	5.14
CC(C)=CCS(=O)c1ccccc1NC1=CC(=O)CC(C)(C)C1 (configuration not stated)	> 100
Cc1cn2c(=O)c3ccccc3nc2s1	> 100
CN=NN(C)C(=O)NC	> 100
N#CC(NNC(=O)Cc1ccccc1)c1ccccc1O (configuration not stated)	> 92.6
COc1cccc(OC)c1/C=C1\OC(=O)c2cccc(OC)c21	> 100
